Measured values published in paper PMC4612330 (Cancer Chemotherapy and Pharmacology, 2015).
Where “and” joins values, the source holds several entries; their conditions need not be identical. Identical values can stand only once. Like-named read-outs stand apart in the source and are kept apart here. Blank lines part the entries; values can stand above or below the compound they belong to.

Experiments:
[1] = phase 1 plasma pharmacokinetics, noncompartmental; details: for AUCt: carboplatin AUC 6 mg/mL min IV day 3, last sampling 21 h
Protocol: Six cycles of therapy were planned.
Plasma samples were stored at −20 °C until shipment to AbbVie. […] Plasma concentrations of carboplatin were determined using an inductively coupled plasma mass spectrometry. Standard pharmacokinetic parameters were determined using non-compartmental methods.

[2] = tested on: Japanese patients with NSCLC; experiment: phase 1 anti-tumor response (RECIST version 1.1) of veliparib plus carboplatin and paclitaxel; assay type: in vivo, human
Protocol: A CT scan of the full chest and abdomen with images of the liver and adrenal glands was performed for all tumor assessments at screening (within 3 weeks prior to registration) and at the end of every 2 cycles (6 weeks). Tumor assessments were performed within 7 days of the scheduled date.

[3] = tested on: PARP activity in tumor biopsies; details: cited from earlier work; for PARP inhibition in tumor biopsies, average: 50 mg
[4] = tested on: major cytochrome P450 enzymes; details: at therapeutic doses; cited from earlier work
[5] = design: method as in printed; details: ref not given; cited from earlier work
[6] = tested on: lung cancer tumor models; details: preclinical lung cancer tumor models; cited from earlier work
[7] = tested on: patients with triple-negative breast cancer; details: with carboplatin and paclitaxel; cited from earlier work
[8] = tested on: patients with triple-negative breast cancer; details: veliparib and carboplatin plus standard neoadjuvant therapy; cited from earlier work
[9] = tested on: PARP activity in PBMCs; details: 50 mg, maintained for 24 h in 3 subjects; cited from earlier work
[10] = tested on: major drug transporters; details: at therapeutic doses; cited from earlier work
[11] = tested on: patients with newly diagnosed ovarian cancer; design: method as in GOG 9923; details: with carboplatin, paclitaxel, and bevacizumab; study ongoing; ref GOG 9923; cited from earlier work
[12] = design: method as in printed; details: ref not given; cited from earlier work; remark: listed apart in the source
[13] = tested on: patients with advanced or metastatic NSCLC; details: cited from earlier work
[14] = tested on: patients with advanced or metastatic solid tumors; details: cited from earlier work
[15] = in humans; cited from earlier work
[16] = carboplatin AUC 6 mg/mL min IV day 3, all patients N = 12, mean ± SD
[17] = carboplatin AUC 6 mg/mL min IV day 3, with veliparib 40 mg BID n = 3, mean ± SD
[18] = carboplatin AUC 6 mg/mL min IV day 3, with veliparib 80 mg BID n = 3, mean ± SD
[19] = carboplatin AUC 6 mg/mL min IV day 3, with veliparib 120 mg (BID) n = 6, mean ± SD
[20] = plus carboplatin and paclitaxel

Structure (SMILES): N.N.O=C([O-])C1(C(=O)[O-])CCC1.[Pt+2] [Carboplatin, reference compound]
AUCt ([1]; all patients N = 12, mean ± SD): 92500 ± 6540 ng·h/mL
AUCt ([1]; with veliparib 40 mg BID n = 3, mean ± SD): 94100 ± 9910 ng·h/mL
AUCt ([1]; with veliparib 80 mg BID n = 3, mean ± SD): 95100 ± 5830 ng·h/mL
AUCt ([1]; with veliparib 120 mg (BID) n = 6, mean ± SD): 90300 ± 5450 ng·h/mL
AUC∞ [1, 16]: 103000 ± 7670 ng·h/mL
C max [1, 16]: 22600 ± 2250 ng/mL
T max [1, 16]: 1.0 ± 0.0 h
AUC∞ [1, 17]: 105000 ± 12300 ng·h/mL
C max [1, 17]: 22300 ± 2370 ng/mL
T max [1, 17]: 1.0 ± 0.0 h
AUC∞ [1, 18]: 105000 ± 7140 ng·h/mL
C max [1, 18]: 24300 ± 1160 ng/mL
T max [1, 18]: 1.0 ± 0.0 h
AUC∞ [1, 19]: 100000 ± 5730 ng·h/mL
C max [1, 19]: 22000 ± 2450 ng/mL
T max [1, 19]: 1.0 ± 0.0 h
pharmacokinetics when co-administered with 40, 80, or 120 mg veliparib BID ([1]; day 3 of cycle 1): comparable

T max ([1]; human, in vivo, iv): 3.0 ± 0.0 h
AUC(0-t) ([1]; human, in vivo, iv, 200 mg/m2, AUCt): 24800 ± 2860 ng·h/mL
AUC(0-inf) ([1]; human, in vivo, iv, 200 mg/m2, AUC∞): 25500 ± 2890 ng·h/mL
Cmax ([1]; human, in vivo, iv, 200 mg/m2, C max): 6840 ± 1200 ng/mL
Tmax ([1]; human, in vivo, iv, 200 mg/m2, T max): 2.9 ± 0.3 h
Tmax ([1]; human, in vivo, iv, T max): 3.1 ± 0.2 h
Structure (SMILES): CC(=O)O[C@H]1C(=O)[C@@]2(C)[C@H]([C@H](OC(=O)c3ccccc3)[C@]3(O)C[C@H](OC(=O)[C@H](O)[C@@H](NC(=O)c4ccccc4)c4ccccc4)C(C)=C1C3(C)C)[C@]1(OC(C)=O)CO[C@@H]1C[C@@H]2O [Paclitaxel, reference compound]

AUC0–8/dose ([1]; human, in vivo): 31.4 ± 6.69 (ng h/mL)/mg
AUC∞/dose ([1]; human, in vivo): 44.2 ± 11.3 (ng h/mL)/mg
C max/dose ([1]; human, in vivo): 7.06 ± 1.29 (ng/mL)/mg
AUC0–8/dose ([1]; human, in vivo, 40 mg): 32.2 ± 9.24 (ng h/mL)/mg
AUC∞/dose ([1]; human, in vivo, 40 mg): 46.0 ± 16.8 (ng h/mL)/mg
C max/dose ([1]; human, in vivo, 40 mg): 8.18 ± 1.19 (ng/mL)/mg
AUC(0-t) ([1]; human, in vivo, 40 mg, AUC0–8): 1290 ± 370 ng·h/mL
AUC(0-inf) ([1]; human, in vivo, 40 mg, AUC∞): 1840 ± 671 ng·h/mL
Cmax ([1]; human, in vivo, 40 mg, C max): 327 ± 47.7 ng/mL
Tmax ([1]; human, in vivo, 40 mg, T max): 2.5 ± 1.3 h
AUC0–8/dose ([1]; human, in vivo, 80 mg): 26.7 ± 2.46 (ng h/mL)/mg
AUC∞/dose ([1]; human, in vivo, 80 mg): 35.0 ± 3.33 (ng h/mL)/mg
C max/dose ([1]; human, in vivo, 80 mg): 6.01 ± 0.35 (ng/mL)/mg
AUC(0-t) ([1]; human, in vivo, 80 mg, AUC0–8): 2140 ± 197 ng·h/mL
AUC(0-inf) ([1]; human, in vivo, 80 mg, AUC∞): 2800 ± 266 ng·h/mL
Cmax ([1]; human, in vivo, 80 mg, C max): 481 ± 27.8 ng/mL
Tmax ([1]; human, in vivo, 80 mg, T max): 3.3 ± 1.2 h
AUC0–8/dose ([1]; human, in vivo, 120 mg): 33.3 ± 6.34 (ng h/mL)/mg
AUC∞/dose ([1]; human, in vivo, 120 mg): 48.0 ± 9.72 (ng h/mL)/mg
C max/dose ([1]; human, in vivo, 120 mg): 7.03 ± 1.27 (ng/mL)/mg
dose proportionality of Cmax and AUC ([1]; human, in vivo, 120 mg): approximately dose proportional
AUC(0-t) ([1]; human, in vivo, 120 mg, AUC0–8): 3990 ± 796 ng·h/mL
AUC(0-inf) ([1]; human, in vivo, 120 mg, AUC∞): 5760 ± 1170 ng·h/mL
Cmax ([1]; human, in vivo, 120 mg, C max): 844 ± 152 ng/mL
Tmax ([1]; human, in vivo, 120 mg, T max): 3 ± 1.1 h
pharmacokinetic profile, Japanese versus Western populations ([1]; in vivo): generally comparable
Structure (SMILES): C[C@]1(c2nc3c(C(N)=O)cccc3[nH]2)CCCN1 [Veliparib, 2-[(R)-2-methylpyrrolidin-2-yl]-1H-benzimidazole-4-carboxamide]
patients who developed progressive disease (PD) ([2]; 80 mg BID): One
median PFS ([2]; all dose levels): 92 days
patients who achieved PR at the first CT scan ([2]; all dose levels): 3
patients who achieved a PR ([2]; all dose levels, 11 patients): Six
overall response rate ([2]; efficacy population, 11 patients): 55%
PARP inhibition in tumor biopsies, average ([3]; 3–6 h after dosing (N = 3)): 75%
PARP inhibition in tumor biopsies, average ([3]; 24 h after dosing (N = 3)): 74%
inhibition of PARP activity in tumor biopsies ([3]; single dose of 25 mg, 3–6 h after dosing, 3 subjects (one value each)): 92% and 95% and 100%
inhibition of major cytochrome P450 enzymes [4]: not an inhibitor
permeability [5]: permeable
effect on platinum-based chemotherapy [6]: potentiates the effect of platinum-based chemotherapy
dose cleared [7]: up to 200 mg BID
estimated pathologic complete response rate [8]: 52%
inhibition of PARP activity in PBMCs [9]: Complete inhibition
inhibition of major drug transporters [10]: not an inhibitor
dose cleared [11]: ≥ 150 mg BID
solubility [12]: highly soluble
Overall survival (OS) [13, 20]: 11.1 months
median progression-free survival (PFS) [13, 20]: 5.8 months
HR (PFS) ([13]; veliparib versus placebo, each plus carboplatin and paclitaxel): 0.71
maximum dose of veliparib ([14]; for 7 days in addition to standard doses of carboplatin and paclitaxel): 120 mg BID
complete response (CR) ([14]; phase 1 dose-escalation study): 3%
complete response (CR), patients ([14]; phase 1 dose-escalation study): 2/68
partial response (PR) ([14]; phase 1 dose-escalation study): 16%
partial response (PR), patients ([14]; phase 1 dose-escalation study): 11/68
stable disease ([14]; phase 1 dose-escalation study): 51%
stable disease, patients ([14]; phase 1 dose-escalation study): 35/68
RPTD ([14]; with standard doses of carboplatin and paclitaxel): 100 mg BID
elimination [15]: primarily eliminated by renal excretion
